In ChEMBL document CHEMBL1201862, “PubChem BioAssay data set” (2004):
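Growth conditions: 96-well plates. Treatment: test compound, 48 hours, 5 concentrations. Analysis: linear interpolation between bracketing concentrations; unreached endpoints set to highest concentration. Abbreviation: GI50, concentration required for 50% inhibition of growth.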 Activity calls are given as the source filed them. No stated cut-off is given here; in the data, active = GI50 up to about 1.1 µM and inactive = higher.

Legend:
Experiment in all cases: DTP human tumour cell line panel, 48 h
[1] = system: SN12C
[2] = system: HCC 2998
[3] = system: SNB-19
[4] = system: CAKI-1
[5] = system: SK-MEL-28
[6] = system: EKVX
[7] = system: OVCAR-4
[8] = system: SK-MEL-5
[9] = system: SF-268
[10] = system: OVCAR-8
[11] = system: M14
[12] = system: 786-0
[13] = system: A549
[14] = system: Malme-3M
[15] = system: NCI-H226
[16] = system: HOP-62
[17] = system: SNB-75
[18] = system: UACC-62
[19] = system: RXF 393
[20] = system: KM12
[21] = system: ACHN
[22] = system: NCI/ADR-RES
[23] = system: MCF7
[24] = system: UACC-257
[25] = system: NCI-H522
[26] = system: PC-3
[27] = system: UO-31
[28] = system: COLO 205
[29] = system: HT-29
[30] = system: HCT-116
[31] = system: DU-145
[32] = system: MDA-N
[33] = system: RPMI-8226
[34] = system: MOLT-4
[35] = system: OVCAR-5
[36] = system: IGROV-1
[37] = system: U-251
[38] = system: HCT-15
[39] = system: SK-MEL-2
[40] = system: T47D
[41] = system: SF-295
[42] = system: TK-10
[43] = system: Hs-578T
[44] = system: MDA-MB-435
[45] = system: K562
[46] = system: OVCAR-3
[47] = system: NCI-H23
[48] = system: SK-OV-3
[49] = system: BT-549
[50] = system: SW-620
[51] = system: MDA-MB-231
[52] = system: CCRF-CEM
[53] = system: A498
[54] = system: HOP-92
[55] = system: LOX IMVI
[56] = system: NCI-H460
[57] = system: SF-539
[58] = system: HL-60

## COC(=O)CCC1(C)C2CCC1(C)/C(=N/O)C2 (stereo not drawn)
[1]
  GI50: > 100 µM (inactive)
[2]
  GI50: > 100 µM (inactive)
[3]
  GI50: > 100 µM (inactive)
[4]
  GI50: > 100 µM (inactive)
[5]
  GI50: > 100 µM (inactive)
[6]
  GI50: > 100 µM (inactive)
[7]
  GI50: > 100 µM (inactive)
[8]
  GI50: > 100 µM (inactive)
[9]
  GI50: > 100 µM (inactive)
[10]
  GI50: > 100 µM (inactive)
[11]
  GI50: > 100 µM (inactive)
[12]
  GI50: > 100 µM (inactive)
[13]
  GI50: > 100 µM (inactive)
[14]
  GI50: > 100 µM (inactive)
[15]
  GI50: > 100 µM (inactive)
[16]
  GI50: > 100 µM (inactive)
[17]
  GI50: > 100 µM (inactive)
[18]
  GI50: > 100 µM (inactive)
[19]
  GI50: > 100 µM (inactive)
[20]
  GI50: > 100 µM (inactive)
[21]
  GI50: > 100 µM (inactive)
[22]
  GI50: > 100 µM (inactive)
[23]
  GI50: > 100 µM (inactive)
[24]
  GI50: > 100 µM (inactive)
[25]
  GI50: > 100 µM (inactive)
[26]
  GI50: > 100 µM (inactive)
[27]
  GI50: > 100 µM (inactive)
[28]
  GI50: > 100 µM (inactive)
[29]
  GI50: > 100 µM (inactive)
[30]
  GI50: > 100 µM (inactive)
[31]
  GI50: > 100 µM (inactive)
[32]
  GI50: > 100 µM (inactive)
[33]
  GI50: > 100 µM (inactive)
[34]
  GI50: > 100 µM (inactive)
[35]
  GI50: > 100 µM (inactive)
[36]
  GI50: > 100 µM (inactive)
[37]
  GI50: > 100 µM (inactive)
[38]
  GI50: > 100 µM
[39]
  GI50: > 100 µM (inactive)
[40]
  GI50: > 100 µM (inactive)
[41]
  GI50: > 100 µM (inactive)
[42]
  GI50: > 100 µM (inactive)
[43]
  GI50: > 100 µM (inactive)
[44]
  GI50: > 100 µM (inactive)
[45]
  GI50: > 100 µM (inactive)
[46]
  GI50: > 100 µM (inactive)
[47]
  GI50: > 100 µM (inactive)
[48]
  GI50: > 100 µM (inactive)
[49]
  GI50: > 100 µM (inactive)
[50]
  GI50: > 100 µM (inactive)
[51]
  GI50: > 100 µM (inactive)
[52]
  GI50: > 100 µM (inactive)

## CCOC(=O)c1nc2ccc(C(F)(F)F)cc2nc1Oc1cc(OC)c(OC)c(OC)c1
[1]
  GI50: > 100 µM (inactive)
[53]
  GI50: > 100 µM (inactive)
[3]
  GI50: 27.8 µM (inactive)
[5]
  GI50: > 100 µM (inactive)
[6]
  GI50: 35.3 µM (inactive)
[7]
  GI50: 2.64 µM (inactive)
[8]
  GI50: 23.1 µM (inactive)
[54]
  GI50: 14.5 µM (inactive)
[9]
  GI50: 35.6 µM (inactive)
[10]
  GI50: 38.3 µM (inactive)
[55]
  GI50: > 100 µM (inactive)
[11]
  GI50: > 100 µM (inactive)
[12]
  GI50: 13.5 µM (inactive)
[13]
  GI50: 53.7 µM (inactive)
[14]
  GI50: 35.3 µM (inactive)
[15]
  GI50: 27.2 µM (inactive)
[16]
  GI50: 25.6 µM (inactive)
[17]
  GI50: 19.5 µM (inactive)
[18]
  GI50: 94.8 µM (inactive)
[19]
  GI50: 28.7 µM (inactive)
[20]
  GI50: 40.2 µM (inactive)
[21]
  GI50: 8.17 µM (inactive)
[22]
  GI50: 30.9 µM (inactive)
[23]
  GI50: > 100 µM (inactive)
[24]
  GI50: 40.4 µM (inactive)
[26]
  GI50: > 100 µM (inactive)
[27]
  GI50: > 100 µM (inactive)
[28]
  GI50: 17.7 µM (inactive)
[29]
  GI50: 78.2 µM (inactive)
[30]
  GI50: 50.9 µM (inactive)
[31]
  GI50: 46.8 µM (inactive)
[32]
  GI50: > 100 µM (inactive)
[33]
  GI50: > 100 µM (inactive)
[34]
  GI50: > 100 µM (inactive)
[35]
  GI50: 97.9 µM (inactive)
[36]
  GI50: 51.1 µM (inactive)
[37]
  GI50: 55.6 µM (inactive)
[38]
  GI50: 72.9 µM
[39]
  GI50: > 100 µM (inactive)
[40]
  GI50: > 100 µM (inactive)
[56]
  GI50: 42.5 µM (inactive)
[41]
  GI50: 97.3 µM (inactive)
[42]
  GI50: 75.3 µM (inactive)
[43]
  GI50: 16.8 µM (inactive)
[44]
  GI50: > 100 µM (inactive)
[57]
  GI50: 62.2 µM (inactive)
[45]
  GI50: 36.7 µM (inactive)
[46]
  GI50: > 100 µM (inactive)
[48]
  GI50: > 100 µM (inactive)
[49]
  GI50: > 100 µM (inactive)
[50]
  GI50: 47.8 µM (inactive)
[51]
  GI50: 87.7 µM (inactive)
[58]
  GI50: > 100 µM (inactive)
[52]
  GI50: > 10 µM (inactive)

## COc1cc2c(c(OC)c1O)-c1ccc(OC)c(=O)cc1[C@@H](NC(=O)C(F)(F)F)CC2
[1]
  GI50: 2.52 µM (inactive)
[53]
  GI50: 0.327 µM (active)
[2]
  GI50: 0.307 µM (active)
[3]
  GI50: 0.0975 µM (active)
[4]
  GI50: 0.405 µM (active)
[6]
  GI50: 1.53 µM (inactive)
[7]
  GI50: > 26.1 µM (inactive)
[8]
  GI50: 0.0242 µM (active)
[54]
  GI50: 0.111 µM (active)
[9]
  GI50: 0.173 µM (active)
[10]
  GI50: 0.243 µM (active)
[55]
  GI50: 0.163 µM (active)
[11]
  GI50: 0.0634 µM (active)
[12]
  GI50: 0.327 µM (active)
[13]
  GI50: 0.472 µM (active)
[14]
  GI50: 0.0641 µM (active)
[15]
  GI50: 0.391 µM (active)
[16]
  GI50: 0.192 µM (active)
[18]
  GI50: 0.0387 µM (active)
[20]
  GI50: 0.0482 µM (active)
[21]
  GI50: 0.745 µM (active)
[22]
  GI50: 3.72 µM (inactive)
[23]
  GI50: 0.0441 µM (active)
[24]
  GI50: > 100 µM (inactive)
[25]
  GI50: 0.0235 µM (active)
[26]
  GI50: 0.0706 µM (active)
[27]
  GI50: 6.87 µM (inactive)
[28]
  GI50: 0.0352 µM (active)
[29]
  GI50: 0.0333 µM (active)
[30]
  GI50: 0.0474 µM (active)
[31]
  GI50: 0.361 µM (active)
[32]
  GI50: 0.0262 µM (active)
[33]
  GI50: 0.0252 µM (active)
[36]
  GI50: 0.229 µM (active)
[37]
  GI50: 0.324 µM (active)
[38]
  GI50: 1.16 µM
[39]
  GI50: 0.0282 µM (active)
[40]
  GI50: > 100 µM (inactive)
[56]
  GI50: 0.207 µM (active)
[41]
  GI50: 0.392 µM (active)
[42]
  GI50: > 100 µM (inactive)
[43]
  GI50: 0.019 µM (active)
[44]
  GI50: 0.0206 µM (active)
[57]
  GI50: 0.0243 µM (active)
[46]
  GI50: 0.0307 µM (active)
[47]
  GI50: 0.0809 µM (active)
[48]
  GI50: 0.191 µM (active)
[49]
  GI50: 1.98 µM (inactive)
[50]
  GI50: 0.0376 µM (active)
[51]
  GI50: 0.0413 µM (active)
[58]
  GI50: 0.0217 µM (active)
[52]
  GI50: 0.0519 µM (active)
